Results: ChEMBL document CHEMBL1158580, “Novel 1,3,5-triphenyl-2-pyrazolines as anti-infective agents” (2010)
≈ marks a conversion by molar mass, not a printed value.

Columns and labels:
[1] = system: Mycobacterium tuberculosis; assay: Antimycobacterial activity against Mycobacterium tuberculosis H37Rv assessed as reduction in relative light units at 50 ug/ml after 72 hrs by luciferase reporter phage assay; type: functional; set-up: scale not given: the % may be the effect or the level left
[2] = system: Mycobacterium tuberculosis; assay: Antimycobacterial activity against Mycobacterium tuberculosis H37Rv assessed as reduction in relative light units at 100 ug/ml after 72 hrs by luciferase reporter phage assay; type: functional; set-up: scale not given: the % may be the effect or the level left
Escherichia coli = assay: Antibacterial activity against Escherichia coli NCIM 2931 by microdilution method; type: functional
Proteus vulgaris = assay: Antibacterial activity against Proteus vulgaris NCIM 2813 by microdilution method; type: functional
Klebsiella aerogenes = assay: Antibacterial activity against Enterobacter aerogenes NCIM 5139 by microdilution method; type: functional
Staphylococcus aureus = assay: Antibacterial activity against Staphylococcus aureus NCIM 5021 by microdilution method; type: functional
Salmonella enterica = assay: Antibacterial activity against Salmonella typhi NCIM 2501 by microdilution method; type: functional, Salmonella enterica subsp. enterica serovar Typhi
Bacillus subtilis = assay: Antibacterial activity against Bacillus subtilis NCIM 2718 by microdilution method; type: functional
Fusarium proliferatum = assay: Antifungal activity against Fusarium proliferatum NCIM 1105 assessed as fungal growth inhibition at 2 mg/ml by microdilution method; type: functional
Candida tropicalis = assay: Antifungal activity against Candida tropicalis NCIM 3556 assessed as fungal growth inhibition at 2 mg/ml by microdilution method; type: functional
Aspergillus flavus = assay: Antifungal activity against Aspergillus flavus NCIM 594 assessed as fungal growth inhibition at 2 mg/ml by microdilution method; type: functional
Aspergillus niger = assay: Antifungal activity against Aspergillus niger NCIM 596 assessed as fungal growth inhibition at 2 mg/ml by microdilution method; type: functional

| SMILES | Activity [1] | Activity [2] | MIC (Escherichia coli) | MIC (Proteus vulgaris) | MIC (Klebsiella aerogenes) | MIC (Staphylococcus aureus) | MIC (Salmonella enterica) | MIC (Bacillus subtilis) | inhibition at 2000 µg/mL (Fusarium proliferatum) | inhibition at 2000 µg/mL (Candida tropicalis) | inhibition at 2000 µg/mL (Aspergillus flavus) | inhibition at 2000 µg/mL (Aspergillus niger) |
| --- | --- | --- | --- | --- | --- | --- | --- | --- | --- | --- | --- | --- |
| CSc1ccc(C2CC(c3cccc([N+](=O)[O-])c3)=NN2c2ccccc2)cc1 (configuration not stated) | 0% | 5.7% | 160 µM (≈ 62.3 µg/mL) | 321 µM (≈ 125 µg/mL) | 321 µM (≈ 125 µg/mL) | 642 µM (≈ 250 µg/mL) | 0.321 µM (≈ 0.125 µg/mL) | 321 µM (≈ 125 µg/mL) | 56.9% | 45.9% | 19% | 65.2% |
| COc1ccc(C2=NN(c3ccccc3)C(c3ccc(SC)cc3)C2)cc1OC (configuration not stated) | 32.66% | 30.3% | 155 µM (≈ 62.7 µg/mL) | 309 µM (≈ 125 µg/mL) | 155 µM (≈ 62.7 µg/mL) | 618 µM (≈ 250 µg/mL) | 0.309 µM (≈ 0.125 µg/mL) | 309 µM (≈ 125 µg/mL) | 93.2% | 9.12% | 63.8% | 9.65% |
| CSc1ccc(C2CC(c3ccccc3)=NN2c2ccccc2)cc1 (configuration not stated) | 0% | 17.65% | 45 µM (≈ 15.5 µg/mL) | 726 µM (≈ 250 µg/mL) | 363 µM (≈ 125 µg/mL) | 726 µM (≈ 250 µg/mL) | 0.726 µM (≈ 0.25 µg/mL) | 363 µM (≈ 125 µg/mL) | 94.1% | 73.1% | 30.5% | 93.5% |
| CSc1ccc(C2CC(c3cccc4c3OCO4)=NN2c2ccccc2)cc1 (configuration not stated) | 10.59% | 27.81% | 80 µM (≈ 31.1 µg/mL) | 322 µM (≈ 125 µg/mL) | 322 µM (≈ 125 µg/mL) | 644 µM (≈ 250 µg/mL) | 0.322 µM (≈ 0.125 µg/mL) | 322 µM (≈ 125 µg/mL) | 81.3% | 17.1% | 31.2% | 71.4% |
| CCOc1ccc(C2=NN(c3ccccc3)C(c3ccc(SC)cc3)C2)cc1 (configuration not stated) | 36.44% | 48.35% | 161 µM (≈ 62.6 µg/mL) | 322 µM (≈ 125 µg/mL) | 322 µM (≈ 125 µg/mL) | 643 µM (≈ 250 µg/mL) | 0.322 µM (≈ 0.125 µg/mL) | 322 µM (≈ 125 µg/mL) | 94.3% | 95.4% | 38.2% | 85.3% |
| COc1ccc(C2=NN(c3ccccc3)C(c3ccc(SC)cc3)C2)cc1 (configuration not stated) | 0% | 24.87% | 83 µM (≈ 31.1 µg/mL) | 334 µM (≈ 125 µg/mL) | 334 µM (≈ 125 µg/mL) | 668 µM (≈ 250 µg/mL) | 0.334 µM (≈ 0.125 µg/mL) | 334 µM (≈ 125 µg/mL) | 65.9% | 92.9% | 48.4% | 81.1% |
| CSc1ccc(C2CC(c3ccc(Cl)cc3)=NN2c2ccccc2)cc1 (configuration not stated) | 0% | 17.43% | 82 µM (≈ 31.1 µg/mL) | 660 µM (≈ 250 µg/mL) | 330 µM (≈ 125 µg/mL) | 660 µM (≈ 250 µg/mL) | 0.33 µM (≈ 0.125 µg/mL) | 330 µM (≈ 125 µg/mL) | 72.9% | 94.4% | 13.1% | 93% |
| CS(=O)(=O)c1ccc(C2CC(c3ccccc3)=NN2c2ccccc2)cc1 (configuration not stated) | 1.7% | 50.71% | 166 µM (≈ 62.5 µg/mL) | 332 µM (≈ 125 µg/mL) | 332 µM (≈ 125 µg/mL) | 664 µM (≈ 250 µg/mL) | 0.332 µM (≈ 0.125 µg/mL) | 332 µM (≈ 125 µg/mL) | 97.6% | 30.6% | 65.8% | 47.2% |
| CSc1ccc(C2CC(c3ccc(C)cc3)=NN2c2ccccc2)cc1 (configuration not stated) | 0% | 19.26% | 174 µM (≈ 62.4 µg/mL) | 349 µM (≈ 125 µg/mL) | 349 µM (≈ 125 µg/mL) | 697 µM (≈ 250 µg/mL) | 0.349 µM (≈ 0.125 µg/mL) | 349 µM (≈ 125 µg/mL) | 83.8% | 95.3% | 38.6% | 93% |
| CSc1ccc(C2CC(c3cccc(N)c3)=NN2c2ccccc2)cc1 (configuration not stated) | 0% | 13.79% | 173 µM (≈ 62.2 µg/mL) | 347 µM (≈ 125 µg/mL) | 347 µM (≈ 125 µg/mL) | 694 µM (≈ 249 µg/mL) | 0.347 µM (≈ 0.125 µg/mL) | 347 µM (≈ 125 µg/mL) | 93.6% | 86.1% | 25% | 84.4% |
| CSc1ccc(C2CC(c3cccc(Br)c3)=NN2c2ccccc2)cc1 (configuration not stated) | 8.55% | 20.17% | 295 µM (≈ 125 µg/mL) | 295 µM (≈ 125 µg/mL) | 295 µM (≈ 125 µg/mL) | 591 µM (≈ 250 µg/mL) | 0.295 µM (≈ 0.125 µg/mL) | 295 µM (≈ 125 µg/mL) | 90.1% | 65.1% | 91.4% | 64.6% |
| CS(=O)(=O)c1ccc(C2CC(c3ccc(Cl)cc3)=NN2c2ccccc2)cc1 (configuration not stated) | 0.76% | 15.46% | 152 µM (≈ 62.5 µg/mL) | 304 µM (≈ 125 µg/mL) | 304 µM (≈ 125 µg/mL) | 608 µM (≈ 250 µg/mL) | 0.304 µM (≈ 0.125 µg/mL) | 304 µM (≈ 125 µg/mL) | 88.3% | 95.6% | 88.4% | 97.5% |
| CSc1ccc(C2CC(c3ccc(Br)cc3)=NN2c2ccccc2)cc1 (configuration not stated) | 0% | 18.55% | 148 µM (≈ 62.7 µg/mL) | 295 µM (≈ 125 µg/mL) | 295 µM (≈ 125 µg/mL) | 591 µM (≈ 250 µg/mL) | 0.295 µM (≈ 0.125 µg/mL) | 295 µM (≈ 125 µg/mL) | 34.3% | 88.1% | 28.2% | 88.5% |
| CSc1ccc(C2CC(c3ccc(F)cc3)=NN2c2ccccc2)cc1 (configuration not stated) | 0% | 4.75% | 22 µM (≈ 7.97 µg/mL) | 345 µM (≈ 125 µg/mL) | 345 µM (≈ 125 µg/mL) | 690 µM (≈ 250 µg/mL) | 0.69 µM (≈ 0.25 µg/mL) | 172 µM (≈ 62.3 µg/mL) | 98.7% | 97.4% | 94.8% | 97.3% |
| COc1cccc(C2=NN(c3ccccc3)C(c3ccc(SC)cc3)C2)c1 (configuration not stated) | 7.45% | 26.85% | 167 µM (≈ 62.5 µg/mL) | 334 µM (≈ 125 µg/mL) | 334 µM (≈ 125 µg/mL) | 668 µM (≈ 250 µg/mL) | 0.334 µM (≈ 0.125 µg/mL) | 334 µM (≈ 125 µg/mL) | 96.1% | 98.7% | 51.5% | 90.1% |
| CSc1ccc(C2CC(c3ccccc3Cl)=NN2c2ccccc2)cc1 (configuration not stated) | 0% | 0% | 165 µM (≈ 62.5 µg/mL) | 330 µM (≈ 125 µg/mL) | 165 µM (≈ 62.5 µg/mL) | 330 µM (≈ 125 µg/mL) | 0.33 µM (≈ 0.125 µg/mL) | 330 µM (≈ 125 µg/mL) | 93.6% | 91% | 88.2% | 98.3% |
